Reference: ChEMBL document CHEMBL1201862, “PubChem BioAssay data set” (2004)
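A five-concentration, 48-hour dose response in 96-well plates underlies each endpoint, interpolated linearly between surrounding concentrations. GI50 = concentration required for 50% inhibition of growth.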 Activity calls are given as the source filed them. Rule as the data show it: active = GI50 up to about 1.1 µM and inactive = higher.

Key:
Experiment in all cases: NCI anticancer screen, dose series, 48 h
OVCAR-8 = system: OVCAR-8
KM-20L2 = system: KM-20L2
K562 = system: K562
SR = system: SR
786-0 = system: 786-0
LXFL 529 = system: LXFL 529
UACC-257 = system: UACC-257
SK-OV-3 = system: SK-OV-3
KM12 = system: KM12
HT-29 = system: HT-29
HOP-62 = system: HOP-62
M14 = system: M14
UO-31 = system: UO-31
SK-MEL-28 = system: SK-MEL-28
RXF 393 = system: RXF 393
NCI-H522 = system: NCI-H522
SN12C = system: SN12C
IGROV-1 = system: IGROV-1
A498 = system: A498
M19-MEL = system: M19-MEL
RPMI-8226 = system: RPMI-8226
LOX IMVI = system: LOX IMVI
SF-539 = system: SF-539
SW-620 = system: SW-620
XF498 = system: XF498
HCT-15 = system: HCT-15
EKVX = system: EKVX
SK-MEL-2 = system: SK-MEL-2
DMS-114 = system: DMS-114
SF-295 = system: SF-295
DMS-273 = system: DMS-273
NCI-H226 = system: NCI-H226
OVCAR-4 = system: OVCAR-4
OVCAR-5 = system: OVCAR-5
A549 = system: A549
U-251 = system: U-251
SNB-75 = system: SNB-75
HCC 2998 = system: HCC 2998
Malme-3M = system: Malme-3M
HCT-116 = system: HCT-116
SF-268 = system: SF-268
OVCAR-3 = system: OVCAR-3
UACC-62 = system: UACC-62
DLD-1 = system: DLD-1
MOLT-4 = system: MOLT-4
SK-MEL-5 = system: SK-MEL-5
SNB-19 = system: SNB-19
ACHN = system: ACHN
CAKI-1 = system: CAKI-1
NCI-H460 = system: NCI-H460
CCRF-CEM = system: CCRF-CEM
HOP-92 = system: HOP-92
SNB-78 = system: SNB-78
TK-10 = system: TK-10
NCI-H23 = system: NCI-H23
COLO 205 = system: COLO 205
HL-60 = system: HL-60

Compound: COCc1c(CO)cnc(C)c1OC1OC(CO)C(O)C(O)C1O (stereo not drawn)
- GI50 (OVCAR-8): > 100 µM (inactive)
- GI50 (KM-20L2): > 100 µM (inactive)
- GI50 (K562): > 100 µM (inactive)
- GI50 (SR): > 100 µM (inactive)
- GI50 (786-0): > 100 µM (inactive)
- GI50 (LXFL 529): > 100 µM (inactive)
- GI50 (UACC-257): > 100 µM (inactive)
- GI50 (SK-OV-3): > 100 µM (inactive)
- GI50 (KM12): > 100 µM (inactive)
- GI50 (HT-29): > 100 µM (inactive)
- GI50 (HOP-62): > 100 µM (inactive)
- GI50 (M14): > 100 µM (inactive)
- GI50 (UO-31): > 100 µM (inactive)
- GI50 (SK-MEL-28): > 100 µM (inactive)
- GI50 (RXF 393): > 100 µM (inactive)
- GI50 (NCI-H522): > 100 µM (inactive)
- GI50 (SN12C): > 100 µM (inactive)
- GI50 (IGROV-1): > 100 µM (inactive)
- GI50 (A498): > 100 µM (inactive)
- GI50 (M19-MEL): > 100 µM (inactive)
- GI50 (RPMI-8226): > 100 µM (inactive)
- GI50 (LOX IMVI): > 100 µM (inactive)
- GI50 (SF-539): > 100 µM (inactive)
- GI50 (SW-620): > 100 µM (inactive)
- GI50 (XF498): > 100 µM (inactive)
- GI50 (HCT-15): > 100 µM
- GI50 (EKVX): > 100 µM (inactive)
- GI50 (SK-MEL-2): > 100 µM (inactive)
- GI50 (DMS-114): > 100 µM (inactive)
- GI50 (SF-295): > 100 µM (inactive)
- GI50 (DMS-273): > 100 µM (inactive)
- GI50 (NCI-H226): > 100 µM (inactive)
- GI50 (OVCAR-4): > 100 µM (inactive)
- GI50 (OVCAR-5): > 100 µM (inactive)
- GI50 (A549): > 100 µM (inactive)
- GI50 (U-251): > 100 µM (inactive)
- GI50 (SNB-75): > 100 µM (inactive)
- GI50 (HCC 2998): > 100 µM (inactive)
- GI50 (Malme-3M): > 100 µM (inactive)
- GI50 (HCT-116): > 100 µM (inactive)
- GI50 (SF-268): > 100 µM (inactive)
- GI50 (OVCAR-3): > 100 µM (inactive)
- GI50 (UACC-62): > 100 µM (inactive)
- GI50 (DLD-1): > 100 µM (inactive)
- GI50 (MOLT-4): > 100 µM (inactive)
- GI50 (SK-MEL-5): > 100 µM (inactive)
- GI50 (SNB-19): > 100 µM (inactive)
- GI50 (ACHN): > 100 µM (inactive)
- GI50 (CAKI-1): > 100 µM (inactive)
- GI50 (NCI-H460): > 100 µM (inactive)

Compound: Oc1cc(CN2CCOCCOCCOCCOCC2)c(O)cc1CN1CCOCCOCCOCCOCC1
- GI50 (OVCAR-8): 40.5 µM (inactive)
- GI50 (KM-20L2): > 50.6 µM (inactive)
- GI50 (K562): 24.4 µM (inactive)
- GI50 (SR): 20.3 µM (inactive)
- GI50 (786-0): 27.2 µM (inactive)
- GI50 (LXFL 529): 21.1 µM (inactive)
- GI50 (CCRF-CEM): 18.6 µM (inactive)
- GI50 (UACC-257): > 100 µM (inactive)
- GI50 (SK-OV-3): > 100 µM (inactive)
- GI50 (KM12): > 100 µM (inactive)
- GI50 (HT-29): > 47.2 µM (inactive)
- GI50 (HOP-62): > 100 µM (inactive)
- GI50 (M14): 18.3 µM (inactive)
- GI50 (UO-31): > 71.3 µM (inactive)
- GI50 (SK-MEL-28): 24 µM (inactive)
- GI50 (RXF 393): 23.8 µM (inactive)
- GI50 (NCI-H522): 11.8 µM (inactive)
- GI50 (HOP-92): 21.2 µM (inactive)
- GI50 (SNB-78): > 57.1 µM (inactive)
- GI50 (SN12C): > 10 µM (inactive)
- GI50 (IGROV-1): > 78 µM (inactive)
- GI50 (A498): > 75.3 µM (inactive)
- GI50 (M19-MEL): 14.1 µM (inactive)
- GI50 (RPMI-8226): 26.2 µM (inactive)
- GI50 (LOX IMVI): 24.5 µM (inactive)
- GI50 (TK-10): > 56.2 µM (inactive)
- GI50 (SF-539): > 100 µM (inactive)
- GI50 (SW-620): 24.4 µM (inactive)
- GI50 (XF498): 22 µM (inactive)
- GI50 (HCT-15): 34.9 µM
- GI50 (EKVX): > 100 µM (inactive)
- GI50 (NCI-H23): > 78.5 µM (inactive)
- GI50 (SK-MEL-2): > 50.7 µM (inactive)
- GI50 (COLO 205): 21.2 µM (inactive)
- GI50 (HL-60): 23.8 µM (inactive)
- GI50 (SF-295): > 100 µM (inactive)
- GI50 (NCI-H226): > 61.5 µM (inactive)
- GI50 (OVCAR-4): 18.4 µM (inactive)
- GI50 (OVCAR-5): 22.8 µM (inactive)
- GI50 (A549): > 100 µM (inactive)
- GI50 (U-251): > 41.5 µM (inactive)
- GI50 (SNB-75): > 78.7 µM (inactive)
- GI50 (HCC 2998): > 100 µM (inactive)
- GI50 (Malme-3M): > 10 µM (inactive)
- GI50 (HCT-116): 22.9 µM (inactive)
- GI50 (SF-268): > 56.5 µM (inactive)
- GI50 (OVCAR-3): 61.8 µM (inactive)
- GI50 (UACC-62): 29.2 µM (inactive)
- GI50 (DLD-1): 22.1 µM (inactive)
- GI50 (MOLT-4): 24.3 µM (inactive)
- GI50 (SK-MEL-5): > 61.2 µM (inactive)
- GI50 (SNB-19): > 100 µM (inactive)
- GI50 (ACHN): 23.9 µM (inactive)
- GI50 (CAKI-1): 18.1 µM (inactive)
- GI50 (NCI-H460): > 100 µM (inactive)

Compound: CCOC(=O)C1CC/C(=C(/C#N)C(=O)OC)N1 (stereo not drawn)
- GI50 (OVCAR-8): > 100 µM (inactive)
- GI50 (KM-20L2): > 100 µM (inactive)
- GI50 (K562): > 100 µM (inactive)
- GI50 (SR): > 100 µM (inactive)
- GI50 (786-0): > 100 µM (inactive)
- GI50 (LXFL 529): > 100 µM (inactive)
- GI50 (CCRF-CEM): > 100 µM (inactive)
- GI50 (UACC-257): > 100 µM (inactive)
- GI50 (SK-OV-3): 57.7 µM (inactive)
- GI50 (KM12): > 100 µM (inactive)
- GI50 (HOP-62): > 100 µM (inactive)
- GI50 (M14): > 100 µM (inactive)
- GI50 (UO-31): > 100 µM (inactive)
- GI50 (SK-MEL-28): > 100 µM (inactive)
- GI50 (RXF 393): > 100 µM (inactive)
- GI50 (NCI-H522): > 100 µM (inactive)
- GI50 (HOP-92): > 100 µM (inactive)
- GI50 (SNB-78): > 100 µM (inactive)
- GI50 (SN12C): > 100 µM (inactive)
- GI50 (IGROV-1): > 100 µM (inactive)
- GI50 (A498): > 100 µM (inactive)
- GI50 (M19-MEL): > 100 µM (inactive)
- GI50 (RPMI-8226): > 100 µM (inactive)
- GI50 (LOX IMVI): > 100 µM (inactive)
- GI50 (TK-10): > 100 µM (inactive)
- GI50 (SF-539): > 100 µM (inactive)
- GI50 (SW-620): > 100 µM (inactive)
- GI50 (XF498): > 100 µM (inactive)
- GI50 (HCT-15): > 100 µM
- GI50 (EKVX): > 100 µM (inactive)
- GI50 (NCI-H23): > 100 µM (inactive)
- GI50 (SK-MEL-2): > 100 µM (inactive)
- GI50 (COLO 205): > 100 µM (inactive)
- GI50 (HL-60): > 100 µM (inactive)
- GI50 (DMS-114): > 100 µM (inactive)
- GI50 (SF-295): > 100 µM (inactive)
- GI50 (DMS-273): > 100 µM (inactive)
- GI50 (OVCAR-4): > 100 µM (inactive)
- GI50 (A549): > 100 µM (inactive)
- GI50 (U-251): > 100 µM (inactive)
- GI50 (SNB-75): > 100 µM (inactive)
- GI50 (HCC 2998): > 100 µM (inactive)
- GI50 (HCT-116): > 100 µM (inactive)
- GI50 (SF-268): > 100 µM (inactive)
- GI50 (OVCAR-3): > 100 µM (inactive)
- GI50 (UACC-62): 31.8 µM (inactive)
- GI50 (DLD-1): > 100 µM (inactive)
- GI50 (MOLT-4): > 100 µM (inactive)
- GI50 (SK-MEL-5): > 100 µM (inactive)
- GI50 (SNB-19): > 100 µM (inactive)
- GI50 (ACHN): > 100 µM (inactive)
- GI50 (CAKI-1): > 100 µM (inactive)
- GI50 (NCI-H460): > 100 µM (inactive)
